The source of these data is ChEMBL document CHEMBL1795228, “Air to lung partition coefficients for volatile organic compounds and blood to lung partition coefficients for volatile organic compounds and drugs” (Eur J Med Chem, 2008).

The nature of series [1]: In-vivo serum to lung partition coefficients of the compound, logP(lung) in rat. The series is classed as ADME. The settings on record: octanol/water.
Series [2] can be described thus: In-vivo blood to lung partition coefficients of the compound, logP(lung) in rat. Type of series: ADME.
A short description of series [3]: In-vivo blood/plasma to lung partition coefficients of the compound, logP(lung) in rat. Particulars: octanol/water. The series is classed as ADME, cell-free.
Series [4] is described as follows: In-vitro air to lung partition coefficients of the compound, logK(lung) (human/rat). Particulars: octanol/water.
Series [5] is described as follows: In-vitro air to blood partition coefficients of the compound, logK(blood) (human/rat). Particulars: octanol/water.
Series [6] in a line: In-vitro blood to lung partition coefficients of the compound, logP(lung) (human/rat).

Consider `COC(=O)Nc1nc2cc(C(=O)N3CCN(c4ccccn4)CC3)ccc2[nH]1`, for which, in series [1], the “logP(lung)” value is reported as -0.29.

Consider `COc1ccc(CCCn2ncc3c2nc(N)n2nc(-c4ccco4)nc32)cc1`, for which, in series [2], the “logP(lung)” value is given as 0.62.

Regarding `CC(=O)Nc1ccc(OCC(O)CNC(C)C)cc1` (stereo not drawn) [PRACTOLOL], the “logP(lung)” value in series [2] amounted to 0.48.

As for `Oc1ccc(O)cc1` [HYDROQUINONE], the “logP(lung)” value in series [2] was -0.16.

For `O=C(CCCN1CCC(O)(c2ccc(Cl)cc2)CC1)c1ccc(F)cc1` [HALOPERIDOL], in series [2], the “logP(lung)” value came to 1.73.

Turning to `C=CCOc1ccccc1OCC(O)CNC(C)C` (stereo not drawn) [OXPRENOLOL], the “logP(lung)” value in series [3] was determined as 1.27.

Turning to `COCCc1ccc(OCC(O)CNC(C)C)cc1` (stereo not drawn) [METOPROLOL], in series [2], the “logP(lung)” value was 1.06.

As for `OCCOCCN1CCN(C(c2ccccc2)c2ccc(Cl)cc2)CC1` (stereo not drawn) [HYDROXYZINE], the “logP(lung)” value in series [2] amounted to 1.06.

`C=CC(=O)O` [ACRYLIC ACID]: the “logP(lung)” value in series [2] worked out at 0.14.

As for `CC[C@H]1OC(=O)[C@H](C)[C@@H](O[C@H]2C[C@@](C)(OC)[C@@H](O)[C@H](C)O2)[C@H](C)[C@@H](O[C@@H]2O[C@H](C)C[C@H](N(C)C)[C@H]2O)[C@](C)(O)C[C@@H](C)CN(C)[C@H](C)[C@@H](O)[C@]1(C)O` [AZITHROMYCIN], the “logP(lung)” value in series [1] is recorded as 2.08.

As to `CCc1cc2c(s1)N(C)C(=O)CN=C2c1ccccc1Cl` [CLOTIAZEPAM], the “logP(lung)” value in series [2] worked out at 1.04.

Regarding `CC[C@H]1OC(=O)[C@H](C)[C@@H](O[C@H]2C[C@@](C)(OC)[C@@H](O)[C@H](C)O2)[C@H](C)[C@@H](O[C@@H]2O[C@H](C)C[C@H](N(C)C)[C@H]2O)[C@](C)(O)C[C@@H](C)C(=O)[C@H](C)[C@@H](O)[C@]1(C)O` [ERYTHROMYCIN], the “logP(lung)” value in series [1] is recorded as 1.62.

As for `FC(F)(F)c1ccc(Cl)cc1`, the “logK(lung)” value in series [4] was 1.63. Further, the “logK(blood)” value in series [5] is on record as 1.43. Besides, in series [6], the “logP(lung)” value is 0.2.

`FCOC(C(F)(F)F)C(F)(F)F` [SEVOFLURANE]: the “logK(lung)” value in series [4] is reported as 0.11. In series [5], the “logK(blood)” value is -0.2. The “logP(lung)” value in series [6] stood at 0.31.

`C#C` [ETHYNE]: the “logK(lung)” value in series [4] is recorded as -0.06. Further, in series [5], the “logK(blood)” value is given as -0.06. In addition, the “logP(lung)” value in series [6] came to 0.

As to `Cc1ccccc1C` [O-XYLENE], the “logK(lung)” value in series [4] is recorded as 1.94. In addition, the “logK(blood)” value in series [5] is 1.42. Further, the “logP(lung)” value in series [6] is listed as 0.52.

For the compound `CCCCCC` [HEXANE], the “logK(lung)” value in series [4] was 0. In addition, the “logK(blood)” value in series [5] is 0.21. The “logP(lung)” value in series [6] is recorded as -0.21.

Turning to `CN1CCN(CCCN2c3ccccc3Sc3ccc(C(F)(F)F)cc32)CC1` [TRIFLUOPERAZINE], the “logP(lung)” value in series [2] came out at 1.33.

As for `CC(Cl)(Cl)Cl` [TRICHLOROETHANE], the “logK(lung)” value in series [4] turned out to be 0.67. In addition, the “logK(blood)” value in series [5] stood at 0.63. Further, the “logP(lung)” value in series [6] was found to be 0.04.

In the case of `CN(C)CCCN1c2ccccc2Sc2ccc(Cl)cc21` [CHLORPROMAZINE], the “logP(lung)” value in series [2] stood at 1.81.

Turning to `CCOCC` [ETHER], the “logK(lung)” value in series [4] was 1.14. In series [5], the “logK(blood)” value turned out to be 1.11. Also, the “logP(lung)” value in series [6] worked out at 0.03.

With `O=C1CN=C(c2ccccc2)c2cc([N+](=O)[O-])ccc2N1` [NITRAZEPAM], the “logP(lung)” value in series [2] is 0.26.

Regarding `CN(C)CCCN1c2ccccc2CCc2ccc(Cl)cc21` [CLOMIPRAMINE], the “logP(lung)” value in series [2] is reported as 2.16.

As to `C=CC=C` [BUTADIENE], the “logK(lung)” value in series [4] is listed as -0.32. Moreover, the “logK(blood)” value in series [5] is 0.09. Further, the “logP(lung)” value in series [6] is recorded as -0.41.

As for `ClC=C(Cl)Cl` [TRICHLOROETHYLENE], in series [4], the “logK(lung)” value is on record as 1.15. In addition, in series [5], the “logK(blood)” value came to 1.14. Moreover, in series [6], the “logP(lung)” value was 0.01.

As for `CC(C)CO` [ISOBUTANOL], the “logK(lung)” value in series [4] was 2.6. Further, in series [5], the “logK(blood)” value was determined as 2.92. The “logP(lung)” value in series [6] is on record as -0.32.

As to `OC(CCN1CCCCC1)(c1ccccc1)C1CCCCC1` (stereo not drawn) [TRIHEXYPHENIDYL], in series [2], the “logP(lung)” value amounted to 1.87.

For `Cc1ncc2n1-c1ccc(Cl)cc1C(c1ccccc1F)=NC2` [MIDAZOLAM], the “logP(lung)” value in series [3] turned out to be 0.6.
